Reference: patent US10617677B2, “Nuclear transport modulators and uses thereof” (Biogen MA Inc., priority 2012, dated 2020)

Key:
A549 xenograft tumors = assay: A549 lung carcinoma xenograft in SCID mice; assay type: in vivo; conditions: for mean tumor volume: 5 mg/kg IP Days 1, 15
Method: The A549 cell line was derived from explant culture of alveolar carcinoma tissue from a person. The cells were grown in Ham's F12-K tissue culture media with 10% fetal calf serum and 1% penicillin/streptomycin. Cells were routinely trypsinized and passaged 1:10. Thirty-two (32) female CB-17 SCID mice (Charles River Labs strain code 236), aged 5 to 6 weeks were used with a mean pre-treatment body weight of 16.3 grams. Mice were divided into four (4) groups of eight (8) prior to the initiation of treatment based on tumor volume. On the day of implantation, cells were washed in PBS, trypsinized and resuspended in complete media to a density of 2×10^7 cells/mL prior to being mixed with an equal volume of Matrigel. This mixture was then inoculated subcutaneously into mice in a volume of 0.1 mL using a 23G needle.
Animal weights and condition were recorded daily, and tumors were measured on Mondays, Wednesdays and Fridays with micro-calipers, and tumor volume was calculated as (length×width×width)/2.
Animals with weight loss of more than 20% of their starting weight were euthanized. Mice with weight loss of more than 15% of their starting weight were not treated again until weight loss recovered to less than 5% of their starting weight. Any animals with a tumor volume of more than 1500 mm^3 were euthanized.
Dosing solutions were prepared fresh on each day of dosing. Compound 2 was supplied as a lyophilized powder containing 69.61% Compound 2 with the balance made up of Pluronic F-68 and PVP K29/32. This was prepared by dissolving the lyophilized powder in sterile water. Cisplatin was dissolved at 5 mg/mL in DMSO and diluted 1:10 in sterile water for injection. All test articles were administered in a volume of 0.1 mL/10 g body weight.
Statistical differences between treatment groups were determined using Mann-Whitney Rank Sum or ANOVA tests with a critical value of 0.05.

NF-κB = NF-κB transcriptional activity in TNFα-induced HeLa cells; assay type: cell-based; conditions: Homo sapiens, 1 h pre-treatment, then 4 h of 20 ng/mL TNFα, average of three experiments, read-out: IC50, inhibition of NF-κB transcriptional activity
Method: The compounds were tested on HeLa (adenocarcinoma) cells to quantify their ability to inhibit NF-κB transcriptional activity. NF-κB activity was induced in HeLa cells by TNFα, and then the compounds were added to inhibit the induced NF-κB activity. Half maximal inhibitory concentrations (IC50) of several compounds, namely Compound 1, Compound 2 and Compound 12, were determined by dose response studies.
HeLa cells were plated in a 12-well plate (200,000 cells/well) and cultured in Eagle's Minimal Essential medium (EMEM) from Lonza supplemented with 10% heat-inactivated fetal bovine serum (Invitrogen) and 50 μg/mL penicillin/streptomycin (Invitrogen), and were left overnight to attach. Cells were pre-treated with serial diluted (started at 30 µM; 1:3 dilution) compounds for 1 h and then exposed to 20 ng/mL TNFα (Peprotech) for 4 h in serum free media. After the treatment, the cells were washed with PBS (Invitrogen), and lysed with RIPA buffer (Themo Scientific). The transcription activity of NF-κB in the cells was measured by Chemiluminescent Transcription Factor Assay kit (Thermo Scientific Catalog #89859), according to the manufacturer's instruction. Briefly, 1.5 mg/mL of RIPA lysed whole cell extract from each treatment were incubated in a 96-well plate bound with NF-κB biotinylated-consensus sequence. The active NF-κB transcription factor bound to the consensus sequence was incubated with NF-κB p65 primary antibody and then with a secondary HRP-conjugated antibody. A chemiluminescent substrate was added to the wells and the resulting signal was detected using a luminometer. Three separate experiments were analyzed for each concentration of the IC50 curves. XLFit model 205 was used to calculate IC50 curves.
Inhibition of NF-κB transcriptional activity was measured by serial dilutions of Compound 1, Compound 2 and Compound 12 after 1 h of compound pre-treatment followed by 4 h of 20 ng/mL TNFα exposure. Three independent experiments were scored for each concentration, with the average being presented here.

[1] = Pharmacokinetics (plasma AUCInf) in mice; assay type: in vivo; conditions: 10 mg/kg po
Method: Blood was collected from mice (N=3) to contribute to the total of 10 time points (pre-dose, 5 min, 15 min, 30 min, 1 hour, 2 hours, 4 hours, 8 hours, 12 hours and 24 hours post dose). Mice were bled on a rotating basis, each mouse contributing 3 time points to the blood collection. At the designated time points, animals were anaesthetized under isoflurane, and approximately 110 μL of blood per time point was collected via retro-orbital puncture into pre-cooled K2EDTA (anti-coagulant) tubes. Blood samples were put on wet ice and centrifuged (2000 g, 5 min at 4° C.) to obtain plasma within 30 minutes of sample collection. All samples were stored frozen at approximately −80° C. until analysis. Prior to analysis, samples were mixed with internal standard (dexamethasone) in acetonitrile, vortexed, centrifuged, and supernatant was injected for analysis. Concentration of compounds in plasma was determined using LC-MS-MS instrumentation (API 4000, Triple Quadruple with electrospray ionization; Acuity Ultra Performance Liquid Chromatography column C18, with MeOH and formic acid as organic solvents). PK parameters including but not limited to Tmax, Cmax, t1/2, AUClast, AUCInf were calculated using WinNonlin Professional 6.2 software package, non-compartmental pharmacokinetic model NCA200.

[2] = Brain to plasma ratio (B:P) in mice; assay type: in vivo
Method: Brain tissue following collection was rinsed with cold saline, dried on filter paper, weighed and snap-frozen by placing on dry ice. All samples were stored frozen at approximately −80° C. until analysis. […] Plasma samples were treated with the identical method (except homogenization step) and concentration of compound in either matrix was calculated based on the generated standard curves.

IMQ-induced psoriasis = assay: Imiquimod (IMQ)-induced dermal inflammation/psoriasis model, Study 2; assay type: in vivo, mice; conditions: Compound 2 2.5 mg/kg, cyclophosphamide 10 mg/kg
Method: Forty (40) male BALB/c mice (Biological E Limited, Hyderabad (CPCSEA registration number: 36/99/CPCSEA)) were divided into four (4) groups consisting of ten (10) mice each. Animals were randomized based on their body weight. The groups were designated as Group-I (Naïve), Group-II (IMQ; vehicle (PEG 400 and HPBCD)), Group-III (IMQ; Compound 2 (2.5 mg/kg)) and […] (IMQ; cyclophosphamide (10 mg/kg)).
A small area on the dorsum of each mouse was shaved, ensuring that these areas were of equal size/area. Psoriasis was induced in Groups II to IV by topical application of 50 mg of IMQ cream daily from Day 1 to Day 6 on the dorsum of the animals. On Day 1 and Day 2 of the study, four hours after topical application of IMQ, Compound 2 or positive control (cyclophosphamide) or vehicle were administered to animals in pertinent groups. Of note, animals in Group II and Group III were subjected to subcutaneous injections, whereas animals in Group IV received oral administration. The Compound 2, vehicle and cyclophosphamide treatment was terminated on Day 2. These groups of animals were maintained on daily IMQ treatments until Day 6. On Day 7, the psoriasis-induced animals were re-randomized into 3 groups consisting of 10 animals each based on Cumulative Disease Activity Index (CDAI). From Day 7 to Day 9, animals received vehicle or positive control or Compound 2. Of note, on these days animals were not treated with IMQ. From Day 10 to Day 14, the animals were treated alternatively with IMQ (Days 10, 12 and 14), or vehicle, positive control or Compound 2 (Days 11, 13).
All animals were observed daily for a period of 16 days for gross observations, body weight and feed and water intake. On Days 1 and 2, scorings of erythema, scaling, folding and thickening of skin were recorded 2 hours after administration of vehicle/positive control/test compounds, and on Days 3 to 14 scorings were recorded 4 hours after IMQ application, or administration of positive control, vehicle or Compound 2.
Vehicle was prepared by dissolving 40 mg of HPBCD in 70.0 mL of distilled water. Compound 2 was prepared by dissolving 3.59 mg in 0.5% PVP and 0.5% Pluronic. Cyclophosphamide was prepared by dissolving 500 mg of CMC in 100 mL distilled water.
The experimental results shown in Table 10 are expressed as mean±SEM. Data was assessed using one-way ANOVA, and post hoc analysis was performed using Dunnett's test.

## N.N.[Cl][Pt][Cl] [cisplatin, reference compound]
A549 xenograft tumors; Compound 2 5 or 10 mg/kg PO, cisplatin 5 mg/kg IP
  tumor growth versus vehicle control group (mean AUC of tumor volume, one-way ANOVA): no statistically significant reduction in tumor growth
A549 xenograft tumors; Day 1
  mean tumor volume: 104 mm^3
A549 xenograft tumors; Day 29
  mean tumor volume: 1136 mm^3

## O=C(/C=C\n1cnc(-c2cc(C(F)(F)F)cc(C(F)(F)F)c2)n1)NNC(=O)C(=O)N1CCOCC1 [Compound 12, (Z)-3-(3-(3,5-bis(trifluoromethyl)phenyl)-1H-1,2,4-triazol-1-yl)-N′-(2-morpholino-2-oxoacetyl)acrylohydrazide]
NF-κB
  IC50: 1460 nM

## COc1cc(-c2ncn(/C=C\C(=O)OC(C)C)n2)cc(C(F)(F)F)c1 [Compound X-1]
[1]
  AUCInf: below the limit of detection
[2]; dosed po
  levels in the brain: below the quantitation limit

## O=P1(N(CCCl)CCCl)NCCCO1 (stereo not drawn) [cyclophosphamide, reference compound]
IMQ-induced psoriasis; Day 7, 4 hr. post-IMQ/drug administration readings
  Rate of reduction of DAI, % change from 1st dose administration: 23.3%
IMQ-induced psoriasis; Day 7, pre-IMQ/drug administration readings
  Rate of reduction of DAI, % change from 1st dose administration: 0.0%
IMQ-induced psoriasis; Day 8, 4 hr. post-IMQ/drug administration readings
  Rate of reduction of DAI, % change from 1st dose administration: 20.9%
IMQ-induced psoriasis; Day 8, pre-IMQ/drug administration readings
  Rate of reduction of DAI, % change from 1st dose administration: 16.3%
IMQ-induced psoriasis; Day 9, 4 hr. post-IMQ/drug administration readings
  Rate of reduction of DAI, % change from 1st dose administration: −41.9%
IMQ-induced psoriasis; Day 9, pre-IMQ/drug administration readings
  Rate of reduction of DAI, % change from 1st dose administration: −39.5%
IMQ-induced psoriasis; Day 10, 4 hr. post-IMQ/drug administration readings
  Rate of reduction of DAI, % change from 1st dose administration: −86.0%
IMQ-induced psoriasis; Day 10, pre-IMQ/drug administration readings
  Rate of reduction of DAI, % change from 1st dose administration: −79.1%
IMQ-induced psoriasis; Day 11, 4 hr. post-IMQ/drug administration readings
  Rate of reduction of DAI, % change from 1st dose administration: −25.6%
IMQ-induced psoriasis; Day 11, pre-IMQ/drug administration readings
  Rate of reduction of DAI, % change from 1st dose administration: −25.6%
IMQ-induced psoriasis; Day 12, 4 hr. post-IMQ/drug administration readings
  Rate of reduction of DAI, % change from 1st dose administration: −34.9%
IMQ-induced psoriasis; Day 12, pre-IMQ/drug administration readings
  Rate of reduction of DAI, % change from 1st dose administration: −39.5%
IMQ-induced psoriasis; Day 13, 4 hr. post-IMQ/drug administration readings
  Rate of reduction of DAI, % change from 1st dose administration: −32.6%
IMQ-induced psoriasis; Day 13, pre-IMQ/drug administration readings
  Rate of reduction of DAI, % change from 1st dose administration: −25.6%
IMQ-induced psoriasis; Day 14, 4 hr. post-IMQ/drug administration readings
  Rate of reduction of DAI, % change from 1st dose administration: −32.6%
IMQ-induced psoriasis; Day 14, pre-IMQ/drug administration readings
  Rate of reduction of DAI, % change from 1st dose administration: −34.9%
IMQ-induced psoriasis; Day 15, pre-IMQ/drug administration readings
  Rate of reduction of DAI, % change from 1st dose administration: −41.9%

## O=C(/C=C\n1cnc(-c2cc(C(F)(F)F)cc(C(F)(F)F)c2)n1)N1CC(F)(F)C1 [Compound X-3]
[2]; mice, 10 mg/kg po, 2 hours post-dose
  B:P: 5.0
